# Measured values published in patent US6962909B2, “Treatment of neovascularization disorders with squalimine” (Genaera Corporation, priority 1995, dated 2005).
# Marks after values point to notes of the source that are not given here.
# Tests used:
# [1] = tested on: heart of a juvenile Xenopus laevis frog; assay: Isolated frog heart, persistence of beating ex vivo; conditions: 10 μg/ml; Krebs-Ringer buffer with adrenaline 50 μg/ml; without compound about one hour
# Experimental: To determine if compound 1436 has such utility, the following experiment was performed. The heart of a juvenile Xenopus laevis frog was dissected from the living animal. The heart was placed into a Petri dish containing Krebs-Ringer buffer with adrenaline 50 μg/ml, and examined with the naked eye. At room temperature, the heart continued beating in a coordinated fashion (atrial beat followed by ventricular beat) for about one hour. In the presence of 10 μg/ml of compound 1436, spontaneous beating persisted up to 24 hours.
# [2] = Growth and weight gain in normal growing mice; assay type: in vivo; conditions: C57B mice
# Experimental: Animals were dosed QTD (i.p.) starting on Day 1. […] Animals receiving 5 mg/kg QTD experienced about a 50% reduction in growth, compared to untreated controls, while animals receiving 1 mg/kg QTD were affected by about 10%. […] They appeared very much like hypophysectamized animals might appear.
# [3] = tested on: L1210 lymphoblastic leukemia cells; assay: Mouse model of L1210 leukemia
# Experimental: C57B mice were inoculated with L1210 lymphoblastic leukemia cells at an inoculum that causes leukemia in 100% of animals. Mice received compound 1436 at 1, 5, 10 mg/kg every 3 days intraperitoneally.
# Of particular interest is the hematological profile determined during the course of treatment. Animals were treated with cisplatin and compound 1436.
# [4] = tested on: PHA-stimulated lymphocytes; assay: Viability of lymphocytes in the HIV replication test; assay type: cell-based
# Experimental: PHA-stimulated lymphocytes were inoculated with a clinical isolate of HIV at a multiplicity of infection of […]. Fresh lymphocytes were obtained and stimulated with PHA and IL-2. After 3 days, 1000 TCID of virus-(HIV clinical isolate) were applied for 1 hour and there was a M.O.I. of 1:10. The cells were washed and in a dose response fashion, and drug in media was applied. After 3 days, the supernatant was exchanged with ½ volume of fresh media and ½ the volume of fresh drug. After 7 days, detergent was added, and HIV P-24 Antigen was determined by Elisa. Viability of the lymphocytes was evaluated along with appearance of the viral gene product p24.
# [5] = tested on: Human coronary artery smooth muscle cells; assay: In vitro growth of coronary artery smooth muscle; assay type: cell-based
# Source text: (§1) As set forth in Table 7 below, all malignant tumors evaluated in tissue culture, endothelial cells and vascular smooth muscle cells were sensitive to inhibition. Thus, compound 1436 has application in the control of growth factor dependent proliferation of many types of tissue.
# Aminosterols of the invention may also have utility in inhibiting the growth factor mediated proliferation of smooth muscle within the artery. Following coronary angioplasty, reocclusion commonly occurs, secondary to reparative proliferation of the vascular smooth muscle within the wall of the surgically manipulated blood vessel. This process generally takes place over the course of 7-10 days. To evaluate whether an agent could prevent the growth factor mediated proliferation of smooth muscle within the artery, compound 1436 was evaluated in vitro for its effect on the proliferation of human coronary artery smooth muscle. Results for compound 1436 are shown in FIG. 13, and those for squalamine are shown in FIG. 14, with FIG. 15 being a composite logarithmic plot.
# [6] = tested on: PHA-stimulated human lymphocytes; assay: Inhibition of mitogen-stimulated growth of human T-cells; assay type: cell-based; conditions: Lymphocyte, 10 μg/ml, read-out: Inhibition of blast transformation
# [7] = tested on: human epithelial cell line MCF 10A; assay: Cell growth with membrane-active agents (absorbance at 600 nm); assay type: cell-based; conditions: 10 μg/ml
# Experimental: (§2) Cell growth was measured by absorbance at 600 nm.
# [8] = tested on: bovine pulmonary endothelial cells; assay: as above; assay type: cell-based; conditions: 1 μg/ml
# Experimental: as §2
# [9] = tested on: human foreskin fibroblasts; assay: as above; assay type: cell-based; conditions: 10 μg/ml
# Experimental: as §2
# [10] = Mouse IV PK study; conditions: in vivo, i.v., HPLC, read-out: Half-life of clearance from the blood stream
# Experimental: To assess clearance, a mouse IV PK study was performed for compound 319 and squalamine. The compound was administered i.v. and blood samples were taken every 10 minutes. The concentration of the administered steroid was determined by HPLC analysis.
# [11] = tested on: human microvascular cells; assay: Endothelial cord formation assay; assay type: cell-based; as to Effect on endothelial cord formation: key: + = Inhibition of angiogenesis; − = No inhibition of angiogenesis; T = Toxic; *= cell rounding @ 10 µg/ml
# Method in brief: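 Human microvascular endothelial cells plated on collagen matrix with VEGF and basic fibroblast growth factor; compound effect assessed on resulting cord-like tubular structures.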
# [12] = tested on: chorioallantoic membrane capillaries; assay: Chorioallantoic membrane (CAM) model of capillary growth; assay type: in vivo, chick; conditions: for Percentage positive, Assay 1 / Percentage positive, Assay 2 / Percentage positive, Mean: 3-day embryo
# Source text: The growing capillaries within the chorioallantoic membrane model (CAM model) have been used as a system in which to evaluate the effect of agents on their potential to inhibit new vessel growth. Neovascularization occurs most aggressively over the first week of embryonic development. Thereafter capillary growth is characterized by principally “elongation” rather than “de novo” formation. In the standard assay, agents are applied locally to a region of the embryo over which neovascularization will occur. Agents are assessed by their ability to inhibit this process, as evaluated by visual examination about 7 days after application. […] The assay utilized is described in detail in Auerbach et al., Pharm. Ther. 51, 1991, 1-11.
# [13] = tested on: human melanoma 1205Lu; assay: Growth of human melanoma 1205Lu in RAG-1 mice; assay type: in vivo; conditions: 10, 20, 40 mg/kg/d; started when tumors about 0.1 ml
# Source text: As apparent from FIG. 5, melanoma 1205Lu develops aggressively in RAG-1 mice after implantation.
# [14] = tested on: Murine B16 melanoma; assay: In vitro cell growth inhibition (assay of Baker et al.); assay type: cell-based; conditions: except at very high concentrations
# Source text: as §1
# [15] = mice with 5 × 10^5 L1210 cells ip, cisplatin 8 mg/kg ip, compound 1436 10 mg/kg ip q4d
# [16] = 20 μg applied, some vascular irritation noted
# [17] = 40 μg applied, some vascular irritation noted
smiles,measurement,setting,value
CC(CC[C@@H](OS(=O)(=O)O)C(C)C)[C@H]1CCC2C3C(CC[C@@]21C)[C@@]1(C)CC[C@H](NCCCNCCCCNCCCN)C[C@@H]1C[C@H]3O (some centres unmarked) [Compound 1436],Persistence of spontaneous beating,[1],up to 24 hours
same,Reduction in growth compared to untreated controls,[2]; 1 mg/kg QTD i.p.,about 10%
same,Reduction in growth compared to untreated controls,[2]; 5 mg/kg QTD i.p.,~50%
same,Suppression of growth of mice,"[2]; 10 mg/kg QTD i.p., after 6 doses, about 1 month",growth was almost completely inhibited
same,Survival of leukemic mice,[3]; highest dose (10 mg/kg every 3 days intraperitoneally),significant prolongation of life
same,"RBC, Early Time",[3]; [15],4.8 10^6/mm^3
same,"RBC, Late Time",[3]; [15],8.8 10^6/mm^3
same,"WBC, Early Time",[3]; [15],3.3 10^3/mm^3
same,"WBC, Late Time",[3]; [15],3.7 10^3/mm^3
same,Lymphocyte viability retained,[4]; 10 μg/ml,95%
same,% Viability,[4]; Conc. 0.5 μM,91%
same,% Viability,[4]; Conc. 10 μM,95%
same,% Viability,[4]; Conc. 20 μM,90.1%
same,Concentration effective in suppressing growth,[5],10 to 12 µg/mL
same,Concentration maintaining cells quiescent without loss of viability,[5],about 11 μg/ml
same,inhibition at 10 µg/mL,[6],> 75%
CC(CC[C@@H](OS(=O)(=O)O)C(C)C)[C@H]1CCC2C3C(CC[C@@]21C)[C@@]1(C)CC[C@H](NCCCNCCCCN)C[C@@H]1C[C@H]3O (some centres unmarked) [squalamine],Effect on cell growth,[7],no effect on the growth
same,Effect on cell growth,[8],inhibited the growth
same,Effect on cell growth,[9],no effect on the growth
same,half-life,[10],~35 min
same,Concentration that inhibits cord formation,[11],about 0.1 μg/ml
same,Effect on endothelial cord formation,[11]; 0.01 μg/ml,−
same,Effect on endothelial cord formation,[11]; 0.1 μg/ml,+
same,Effect on endothelial cord formation,[11]; 1.0 μg/ml,+
same,Effect on endothelial cord formation,[11]; 10.0 μg/ml,+
same,"Percentage positive, Assay 1",[12]; 0.65 μg applied,28%
same,"Percentage positive, Assay 1",[12]; 1.25 μg applied,18%
same,"Percentage positive, Assay 2",[12]; 1.25 μg applied,18%
same,"Percentage positive, Mean",[12]; 1.25 μg applied,18%
same,"Percentage positive, Assay 1",[12]; 2.5 μg applied,35%
same,"Percentage positive, Assay 2",[12]; 2.5 μg applied,18%
same,"Percentage positive, Mean",[12]; 2.5 μg applied,27%
same,"Percentage positive, Assay 1",[12]; 5.0 μg applied,91%
same,"Percentage positive, Assay 2",[12]; 5.0 μg applied,57%
same,"Percentage positive, Mean",[12]; 5.0 μg applied,74%
same,"Percentage positive, Mean",[12]; 20 μg applied,55%
same,"Percentage positive, Assay 1",[12]; [16],52* %
same,"Percentage positive, Assay 2",[12]; [16],58* %
same,"Percentage positive, Mean",[12]; 40 μg applied,32%
same,"Percentage positive, Assay 1",[12]; [17],50* %
same,"Percentage positive, Assay 2",[12]; [17],13* %
same,Percentage positive,"[12]; 13-day embryo, 5.0 μg applied",0/26
same,Suppression of tumor growth,[13],suppress the growth of melanoma 1205Lu in RAG-1 mice in a dose-dependent fashion
same,Cytostatic activity against B16 in culture,[14],minimal cytostatic activity
